According to patent publication US20040115209A1, “Compound targeted for specific cells with reduced systemic toxicity” (priority 2000, published 2004):

How the values were obtained:
B104 cells [1] = assay: Kinetics of paclitaxel cytotoxicity: single bolus versus constant exposure (MTT); assay type: cell-based, rat
Method: It is likely that a single bolus of paclitaxel•antibody conjugate would be delivered because affected cells would not synthesize additional target receptor. Therefore we tested whether a single bolus of paclitaxel would be an effective cytotoxic agent. Cells were exposed to the indicated concentration of paclitaxel for 30 minutes at 4° C. Then, cells were plated in a 96-well plate (Falcon); this group represents treatment with paclitaxel present in a constant manner. The remaining cells were washed free of excess paclitaxel prior to plating; this group represents a single exposure to paclitaxel. […] Optical density readings of MTT were done in an EIA Plate Reader model 2550 (Bio-Rad) at 595 nm.

B104 cells [2] = assay: MTT cytotoxicity of paclitaxel•MC192, B104 cells; assay type: cell-based, rat; conditions: addition of 40 nM MC192
Method: (§1) The survival profile of the cells was measured with the MTT assay 72 hr after plating.

NIH-3T3 cells = assay: MTT cytotoxicity of paclitaxel•MC192, cells that do not express p75; assay type: cell-based, mouse
Method: as §1

B104 cells [3] = assay type: in vivo; conditions: ˜3.5 nM
Method: Nude mice (seven weeks old, female) were used to test the effect of paclitaxel or conjugates in tumor progression. Single cell suspensions of B104 cells (10^5/mouse) were injected subcutaneously in the left flank near the rib cage. Tumor growth was monitored daily. […] Mice were then randomized and treatments were initiated in four groups (n=5 in each group). […] All treatments were done by a total of five injections every two days (for a total of ten days). All injections were done IP on the right side to prevent direct contact of the agents to the tumor growing subcutaneously, and to assure that systemic circulation of the drugs was achieved. Measurements of tumor volume were taken using calipers, every day post treatment for a total of 25 days.
The timeline was: day −14 injection of tumors subcutaneously, days −10, −8, −6, −4, −2 injection of drugs or controls, days 0-25 measurement of tumor growth daily.
Statistical significance of differences in tumor growth among the different treatment groups was determined by the student t test using SYSTAT 7.0 software. P value is significant when it is <0.05.

4-3.6 cells = assay: In vitro survival assay in serum free media (MTT), 4-3.6 cells; assay type: cell-based, rat; conditions: ˜48 hrs, zVAD 20 nM, conjugate 20 nM VAD equivalent, 1 nM 5C3
Method: 4-3.6 cells are placed in serum free media (SFM, PFHM-II, GIBCO, Toronto), where they undergo apoptosis (serum-withdrawal model).
Cells were then cultured for ˜48 hrs. Cell growth/survival was calculated relative to 5% serum (standardized to 100%).

KB cells = assay: MTT cytotoxicity of Doxorubicin-mAb α-IR3, KB cells; assay type: cell-based; conditions: Homo sapiens, 72 h, 3 days, n = 3
Method: (§2) Competition of Doxorubicin-α-IR3 cytotoxicity was done by adding a 10-fold molar excess of α-IR3 antibody. The survival profile of the cells was measured with the MTT assay 72 hr after plating.

KB-V cells = assay: MTT cytotoxicity of Doxorubicin-mAb α-IR3, KB-V cells (p-glycoprotein resistant); assay type: cell-based, human
Method: as §2

NWT-b3 cells = conditions: mouse, 72 h
Method: as §2

NIH 3T3 cells = conditions: mouse fibroblasts
Method: as §2

CC(=O)O[C@H]1C(=O)[C@@]2(C)[C@H]([C@H](OC(=O)c3ccccc3)[C@]3(O)C[C@H](OC(=O)[C@H](O)[C@@H](NC(=O)c4ccccc4)c4ccccc4)C(C)=C1C3(C)C)[C@]1(OC(C)=O)CO[C@@H]1C[C@@H]2O [paclitaxel]
cytotoxic effect of a single exposure versus constant exposure (B104 cells [1]; 20 nM, after 72 and 96 hours of culture): significantly less effective than constant exposure | cytotoxic effect, single exposure versus constant presence (B104 cells [1]; 30 minutes at 4° C. exposure, several concentrations, MTT 48, 72, 96 hr): generally the same whether the drug is present in the culture throughout or after a single exposure | cytotoxicity under ligand competition (B104 cells [2]): same cytotoxicity whether or not 40 nM of mouse IgG or 40 nM of MC192 antibody were added | cytotoxicity on cells that do not express p75 (NIH-3T3 cells): dose-dependent cytotoxicity | efficacy in vivo at the dose effective for the conjugate (B104 cells [3]): not effective at this dose

benzoic acid-Valine-Alanine-Aspartic acid-O-methyl-fluoromethylketone peptide [zVAD]
4-3.6 Cell Survival (MTT, % of serum control) (4-3.6 cells): −2 ± 3 % of serum control

COc1cccc2c1C(=O)c1c(O)c3c(c(O)c1C2=O)C[C@@](O)(C(=O)CO)C[C@@H]3O[C@H]1C[C@H](N)[C@H](O)[C@H](C)O1 [Doxorubicin]
IC50 (KB cells): 60 ± 2 nM | IC50 (KB-V cells; Homo sapiens, KBV, 72 h, KB-V cells, 3 days, MTT, n = 3): > 320 nM | cytotoxicity on multidrug resistant cells (KB-V cells; KB-V compared to sensitive KB cells, with or without Verapamil): inactive on KB-V cells unless Verapamil was added | cytotoxicity under ligand competition (NWT-b3 cells): same cytotoxicity whether excess of mlg or α-IR3 was present or not | cytotoxicity on cells that do not express IGF-IR (NIH 3T3 cells): dose-dependent cytotoxicity
